Data reported in patent US7491827B2, “Aryl sulfonamides useful as inhibitors of chemokine receptor activity” (Millennium Pharmaceuticals, Inc., priority 2003, dated 2009).
pKi: −log10 of the molar value.

What follows are molecules tested against T1, cloned human CCR8 receptor stably expressed in L1.2 cells (Homo sapiens, UniProt P51685) (assay: whole cell binding screen: inhibition of biotinylated human I309 binding to CCR8 (FMAT 8100 HTS)). Settings: Ki of compounds to inhibit I-309 binding to CCR8, L1.2/hCCR8 cells, biotinylated human I-309, 10 point concentration response starting at 10 μM.
T1 construct: expressed in transfected cells
Excerpt: This whole cell binding screen evaluates the ability of compounds to inhibit biotinlyated human I309 binding to the cloned human CCR8 receptor stably expressed in L1.2 cells. Human CCR8 gene was amplified by PCR using PFU polymerase under standard conditions from human genomic DNA purchased from Stratagene. The PCR primers used were:
The 5′ and 3′ primers contained flanking enzyme sites (Bam Hi and Not 1,respectively), which were used to subclone the gene into pcDNA3.1. […] The CCR8 vector was then transfected into L1.2 cells (murine pre-B cells) by electroporation.
Compounds were screened using the FMAT™ 8100 HTS System (purchased from Applied Biosystems).
A suspension was prepared of L1.2/hCCR8 cells at 4.0×10^5 cells/mL in a binding buffer (Buffer consisting of Hanks Balanced Salt Solution (without phenol red), 10 mM HEPES, 0.1% Fatty Acid Free BSA, 0.02% Sodium Azide).
Dilution series of 10 mM stock concentrations of the test compounds were prepared in DMSO and further diluted into binding buffer defined above) to three times the final assay concentration.
10 point concentration response curve is constructed for each compound, starting at 10 μM (final assay concentration in Binding Buffer). […] The components were mixed in wells by covering the plate with aluminum foil and rotating for 0.5 hours. […] Average fluorescence reported for each concentration was normalized to percent inhibition based on negative (no inhibitor) and positive (100 nM excess unlabeled I309 (R and D Systems)) controls.

T1 sequence (P51685 whole entry): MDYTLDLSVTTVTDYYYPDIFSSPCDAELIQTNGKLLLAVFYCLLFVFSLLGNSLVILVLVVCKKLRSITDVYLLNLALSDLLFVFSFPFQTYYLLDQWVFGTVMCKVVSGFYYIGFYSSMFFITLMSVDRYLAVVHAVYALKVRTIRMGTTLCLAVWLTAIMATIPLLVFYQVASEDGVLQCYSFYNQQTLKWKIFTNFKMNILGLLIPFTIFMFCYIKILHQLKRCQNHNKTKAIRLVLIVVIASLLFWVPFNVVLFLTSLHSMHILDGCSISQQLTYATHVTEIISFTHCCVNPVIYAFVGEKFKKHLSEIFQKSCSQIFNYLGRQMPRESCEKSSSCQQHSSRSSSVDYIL

pKi	SMILES
> 6.30	CCOC(=O)N1CCC(NS(=O)(=O)c2ccc(NC(=O)N3CCCCC3)c3ccccc23)CC1 [Compound B-14, 4-{4-[(Piperidine-1-carbonyl)-amino]-naphthalene-1-sulfonylamino}-piperidine-1-carboxylic acid ethyl ester]
> 4.52	CCOC(=O)N1CCC(NS(=O)(=O)c2ccc3cccc(NC(=O)c4ccccc4)c3c2)CC1 [Compound H-51, 4-(8-Benzoylamno-naphthalene-2-sulfonylamino)-piperidine-1-carboxylic acid ethyl ester]

SMILES	pKi
CCOC(=O)N1CCC(NS(=O)(=O)c2ccc(NC(=O)c3ccccc3C)c3ccccc23)CC1 [Compound A-40, 4-[4-(2-Methyl-benzoylamino)-naphthalene-1-sulfonylamino]-piperidine-1-carboxylic acid ethyl ester]	> 6.30

Same assay, conditions: L1.2/hCCR8 cells, biotinylated human I-309, 10 point concentration response starting at 10 μM; read-out: Ki of compounds to inhibit I-309 binding to CCR8

pKi	SMILES
> 6.30	CCOC(=O)N1CC[C@H](NS(=O)(=O)c2ccc(NC(=O)c3ccccc3C)c3c2CCCC3)[C@H](C)C1 (racemic) [Compound E-21, (±)-cis-3-Methyl-4-[4-(2-methyl-benzoylamino)-5,6,7,8-tetrahydro-naphthalene-1-sulfonylamino]-piperidine-1-carboxylic acid ethyl ester]
> 6.30	O=C(Nc1ccc(S(=O)(=O)NC2CCN(C(=O)C3CCCC3)CC2)c2ccccc12)c1ccccc1 [Compound C-5, N-[4-(1-Cyclopentanecarbonyl-piperidin-4-ylsulfamoyl)-naphthalen-1-yl]-benzamide]
> 4.52	CN1CCC(C(=O)Nc2ccc(S(=O)(=O)NC3CCNCC3)c3ccccc23)CC1 [Compound D-17, 1-Methyl-piperidine-4-carboxylic acid [4-(piperidin-4-ylsulfamoyl)-naphthalen-1-yl]-amide]
> 6.30	Cc1ccccc1C(=O)Nc1ccc(S(=O)(=O)N[C@H]2CCN(C(=O)C(C)N)C[C@H]2C)c2cccnc12 (stereo in doubt) [Compound J-39, (3R, 4S)-N-{5-[1-(2-(R)-Amino-propionyl)-3-methyl-piperidin-4-ylsulfamoyl]-quinolin-8-yl}-2-methyl-benzamide]
> 6.30	COC(=O)N1CCC(NS(=O)(=O)c2ccc(NC(=O)c3ccccc3C)c3c2CCCC3)CC1 [Compound E-15, 4-[4-(2-Methyl-benzoylamino)-5,6,7,8-tetrahydro-naphthalene-1-sulfonylamino]-piperidine-1-carboxylic acid methyl ester]
> 6.30	CCNC(=O)N1CCC(NS(=O)(=O)c2ccc(NC(=O)c3ccccc3C)c3c2CCCC3)CC1 [Compound E-19, 4-[4-(2-Methyl-benzoylamino)-5,6,7,8-tetrahydro-naphthalene-1-sulfonylamino]-piperidine-1-carboxylic acid ethylamide]
> 6.30	Cc1ccccc1C(=O)Nc1ccc(S(=O)(=O)NC2CCN(Cc3ccccc3)CC2(C)C)c2ccccc12 (racemic) [Compound A-24, (±)-N-[4-(1-Benzyl-3,3-dimethyl-piperidin-4-ylsulfamoyl)-naphthalen-1-yl]-2-methyl-benzamide]
> 6.30	Cc1ccccc1C(=O)Nc1ccc(S(=O)(=O)NC2[C@@H](C)CN(C(=O)N(C)C)C[C@@H]2C)c2ccccc12 (racemic) [Compound C-65, (±)-(cisstrans)-3,5-Dimethyl-4-[4-(2-methyl-benzoylamino)-naphthalene-1-sulfonylainno]-piperidine-1-carboxylic acid dimethylamide]
> 4.52	O=C(Nc1ccc(S(=O)(=O)Nc2ccc(-c3ccccc3)cc2)c2ccccc12)c1ccccc1 [Compound A-29]
> 6.30	Cc1cccc(NC(=O)c2ccc(S(=O)(=O)NC3CCN(C(=O)OC(C)(C)C)CC3)c3ccccc23)c1C [Compound F-13, 4-[4-(2,3-Dimethyl-phenylcarbamoyl)-naphthalene-1-sulfonylamino]-piperidine-1-carboxylic acid tert-butyl ester]
